Data reported in US11091501B2, “Heterocyclic compounds as RSV inhibitors” (Enanta Pharmaceuticals, Inc., priority 2017, dated 2021).

What follows are molecules tested on Human RSV-A (“Long” strain) (assay: RSV in vitro cytoprotection assay (CPE, ATPlite) in HEp-2 cells). Settings: human respiratory syncytial virus, 96 h; HEp-2 cells, 4-day incubation, ATPlite readout; read-out: Human RSV-A (“Long” strain) EC50.
Assay type: cell-based
Procedure, shortened: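 HEp-2 cells (8,000/well) given 2-fold serial compound dilutions in duplicate, then infected with sucrose-stabilised RSV-A Long stock. After 4 days, cell viability read by ATPlite luminescence, with a parallel uninfected plate for cytotoxicity. EC50 binned A<0.01 μM, B 0.01-0.05 μM, C>0.05 μM.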

Structure (SMILES)	EC50 [nM]
Cc1cnc(N2CC3(CCOCC3)C2)c(C(=O)Nc2ccc(C(=O)N3CCc4cc(-c5ccnnc5)sc4-c4ccc(F)cc43)cc2)c1 [Example 189]	< 10
Cc1cnc(N2CC3(CCOCC3)C2)c(C(=O)Nc2ccc(C(=O)N3CCc4cc(-c5cccnn5)sc4-c4ccc(F)cc43)cc2)c1 [Example 190]	< 10
Cc1cnc(N2CC3(CCOCC3)C2)c(C(=O)Nc2ccc(C(=O)N3CCc4cc(-c5ncccn5)sc4-c4ccc(F)cc43)cc2)c1 [Example 191]	10 to 50
Cc1cnc(N2CC3(CCOCC3)C2)c(C(=O)Nc2ccc(C(=O)N3CCc4cc(-c5nnc(C)o5)sc4-c4cc(F)c(F)cc43)cc2)c1 [Example 193]	< 10
Cc1cnc(N2CC3(CCOCC3)C2)c(C(=O)Nc2ccc(C(=O)N3CCc4cc(-c5nnnn5C)sc4-c4ccc(F)cc43)cc2)c1 [Example 195]	10 to 50
Cc1cnc(N2CC3(CCOCC3)C2)c(C(=O)Nc2ccc(C(=O)N3CCc4c(sc(C(=O)Nc5c(F)cccc5Cl)c4F)-c4ccccc43)cc2)c1 [Example 197]	< 10
Cc1cnc(N2CC3(CCOCC3)C2)c(C(=O)Nc2ccc(C(=O)N3CCc4c(sc(C(=O)Nc5c(F)cccc5C(F)(F)F)c4F)-c4ccccc43)cc2)c1 [Example 200]	< 10
Cc1cnc(N2CC3(CCOCC3)C2)c(C(=O)Nc2ccc(C(=O)N3CCc4c(sc(-c5nc6ccccc6[nH]5)c4F)-c4ccccc43)cc2)c1 [Example 201]	< 10
Cc1cnc(N2CC3(CCOCC3)C2)c(C(=O)Nc2ccc(C(=O)N3CCc4c(sc(-c5nc6cccc(Cl)c6[nH]5)c4F)-c4ccccc43)cc2)c1 [Example 202]	10 to 50
Cc1cnc(N2CC3(CCOCC3)C2)c(C(=O)Nc2ccc(C(=O)N3CCc4c(sc(-c5nc6cccc(F)c6[nH]5)c4F)-c4ccccc43)cc2)c1 [Example 206]	< 10
Cc1cnc(N2CC3(CCOCC3)C2)c(C(=O)Nc2ccc(C(=O)N3CCc4c(sc(C(=O)Nc5c(C)cccc5C)c4F)-c4ccccc43)cc2)c1 [Example 208]	< 10
Cc1cnc(N2CC3(CCOCC3)C2)c(C(=O)Nc2ccc(C(=O)N3CCc4c(sc(C(=O)Nc5ccc(F)cc5F)c4F)-c4ccccc43)cc2)c1 [Example 209]	< 10
Cc1cnc(N2CC3(CCOCC3)C2)c(C(=O)Nc2ccc(C(=O)N3CCc4c(sc(C(=O)Nc5cccc(F)c5)c4F)-c4ccccc43)cc2)c1 [Example 210]	< 10
Cc1ccc(C(=O)Nc2ccc(C(=O)N3CCc4c(sc(-c5nc6cccc(F)c6[nH]5)c4F)-c4ccccc43)cc2)c(N2CC3(CCOCC3)C2)n1 [Example 214]	< 10
Cc1cnc(N2CC3(CCOCC3)C2)c(C(=O)Nc2ccc(C(=O)N3CCc4c(sc(C(=O)Nc5ccc(F)cc5)c4F)-c4ccccc43)cc2)c1 [Example 217]	< 10
Cc1ccc(C(=O)Nc2ccc(C(=O)N3CCc4c(sc(C(=O)Nc5ncccc5F)c4F)-c4ccccc43)cc2)c(N2CC3(CCOCC3)C2)n1 [Example 218]	< 10
Cc1cc(C(=O)Nc2ccc(C(=O)N3CCc4c(sc(C(=O)Nc5c(F)cccc5F)c4F)-c4ccccc43)cc2)c(N2CC3(CCOCC3)C2)nc1C [Example 220]	< 10
Cc1cc(C(=O)Nc2ccc(C(=O)N3CCc4c(sc(C(=O)Nc5ncccc5F)c4F)-c4ccccc43)cc2)c(N2CC3(CCOCC3)C2)nc1C [Example 221]	< 10
Cc1cnc(N2CC3(CCOCC3)C2)c(C(=O)Nc2ccc(C(=O)N3CCc4c(sc(C(=O)Nc5ncncc5F)c4F)-c4ccccc43)cc2)c1 [Example 222]	< 10
Cc1cnc(N2CC3(CCOCC3)C2)c(C(=O)Nc2ccc(C(=O)N3CCc4c(sc(C(=O)Nc5ncc(C)s5)c4F)-c4ccccc43)cc2)c1 [Example 223]	10 to 50
Cc1cnc(N2CC3(CCOCC3)C2)c(C(=O)Nc2ccc(C(=O)N3CCc4c(sc(C(=O)Nc5cccc(C)n5)c4F)-c4ccccc43)cc2)c1 [Example 229]	10 to 50
Cc1cnc(NC(=O)c2sc3c(c2F)CCN(C(=O)c2ccc(NC(=O)c4cc(C)cnc4N4CC5(CCOCC5)C4)cc2)c2ccccc2-3)c(F)c1 [Example 230]	< 10
Cc1cnc(N2CC3(CCOCC3)C2)c(C(=O)Nc2ccc(C(=O)N3CCc4c(sc(C(=O)Nc5ncccc5C(F)(F)F)c4F)-c4ccccc43)cc2)c1 [Example 231]	< 10
Cc1cnc(N2CC3(CCOCC3)C2)c(C(=O)Nc2ccc(C(=O)N3CCc4c(sc(C(=O)Nc5cccc(C(F)(F)F)n5)c4F)-c4ccccc43)cc2)c1 [Example 232]	> 50
Cc1cnc(N2CC3(CCOCC3)C2)c(C(=O)Nc2ccc(C(=O)N3CCc4cc(C(=O)Nc5c(F)cc(F)cc5Cl)oc4-c4ccc(F)cc43)cc2)c1 [Example 235]	< 10
O=C(Nc1c(F)cccc1Cl)c1cc2c(o1)-c1ccc(F)cc1N(C(=O)c1ccc(NC(=O)c3cc4c(nc3N3CC5(CCOCC5)C3)CCCC4)cc1)CC2 [Example 238]	10 to 50
O=C(Nc1c(F)cccc1F)c1cc2c(o1)-c1ccc(F)cc1N(C(=O)c1ccc(NC(=O)c3cc4c(nc3N3CC5(CCOCC5)C3)CCC4)cc1)CC2 [Example 239]	< 10
O=C(Nc1c(F)cccc1F)c1cc2c(o1)-c1ccc(F)cc1N(C(=O)c1ccc(NC(=O)c3cc4c(nc3N3CC5(CCOCC5)C3)CCCC4)cc1)CC2 [Example 241]	< 10

Second part, the molecule after the results:

EC50 [nM]	Structure (SMILES)
10 to 50	Cc1cnc(N2CC3(CCOCC3)C2)c(C(=O)Nc2ccc(C(=O)N3CCc4cc(-c5c(F)cncc5F)sc4-c4ccc(F)cc43)cc2)c1 [Example 186]
< 10	Cc1cnc(N2CC3(CCOCC3)C2)c(C(=O)Nc2ccc(C(=O)N3CCc4cc(-c5ncc(C)[nH]5)sc4-c4ccc(F)cc43)cc2)c1 [Example 187]
< 10	Cc1cnc(N2CC3(CCOCC3)C2)c(C(=O)Nc2ccc(C(=O)N3CCc4cc(-c5cnsc5)sc4-c4ccc(F)cc43)cc2)c1 [Example 192]
10 to 50	Cc1cnc(N2CC3(CCOCC3)C2)c(C(=O)Nc2ccc(C(=O)N3CCc4cc(-c5nnnn5C5CC5)sc4-c4ccc(F)cc43)cc2)c1 [Example 194]
> 50	Cc1cnc(N2CC3(CCOCC3)C2)c(C(=O)Nc2ccc(C(=O)N3CCc4cc(-c5nnn[nH]5)sc4-c4ccc(F)cc43)cc2)c1 [Example 196]
< 10	Cc1cnc(N2CC3(CCOCC3)C2)c(C(=O)Nc2ccc(C(=O)N3CCc4c(sc(C(=O)Nc5c(F)cc(F)cc5Cl)c4F)-c4ccccc43)cc2)c1 [Example 199]
10 to 50	Cc1cnc(N2CC3(CCOCC3)C2)c(C(=O)Nc2ccc(C(=O)N3CCc4c(sc(-c5nc6cccc(C(F)(F)F)c6[nH]5)c4F)-c4ccccc43)cc2)c1 [Example 203]
< 10	Cc1cnc(N2CC3(CCOCC3)C2)c(C(=O)Nc2ccc(C(=O)N3CCc4c(sc(C(=O)Nc5c(C)cccc5C#N)c4F)-c4ccccc43)cc2)c1 [Example 204]
< 10	Cc1cnc(N2CC3(CCOCC3)C2)c(C(=O)Nc2ccc(C(=O)N3CCc4c(sc(C(=O)Nc5ccccc5F)c4F)-c4ccccc43)cc2)c1 [Example 205]
< 10	Cc1cnc(N2CC3(CCOCC3)C2)c(C(=O)Nc2ccc(C(=O)N3CCc4c(sc(-c5nc6ccc(F)cc6[nH]5)c4F)-c4ccccc43)cc2)c1 [Example 207]
< 10	Cc1cnc(N2CC3(CCOCC3)C2)c(C(=O)Nc2ccc(C(=O)N3CCc4c(sc(C(=O)Nc5ccccc5)c4F)-c4ccccc43)cc2)c1 [Example 211]
10 to 50	Cc1cnc(N2CC3(CCOCC3)C2)c(C(=O)Nc2ccc(C(=O)N3CCc4c(sc(C(=O)Nc5cc(F)ccc5F)c4F)-c4ccccc43)cc2)c1 [Example 212]
< 10	Cc1ccc(C(=O)Nc2ccc(C(=O)N3CCc4c(sc(C(=O)Nc5c(F)cccc5F)c4F)-c4ccccc43)cc2)c(N2CC3(CCOCC3)C2)n1 [Example 213]
< 10	Cc1cnc(N2CC3(CCOCC3)C2)c(C(=O)Nc2ccc(C(=O)N3CCc4c(sc(C(=O)Nc5ncccc5F)c4F)-c4ccccc43)cc2)c1 [Example 215]
< 10	Cc1cnc(N2CC3(CCOCC3)C2)c(C(=O)Nc2ccc(C(=O)N3CCc4c(sc(C(=O)Nc5cccc(F)c5F)c4F)-c4ccccc43)cc2)c1 [Example 216]
< 10	Cc1cnc(N2CC3(CCOCC3)C2)c(C(=O)Nc2ccc(C(=O)N3CCc4c(sc(C(=O)Nc5nc(C)ccc5F)c4F)-c4ccccc43)cc2)c1 [Example 219]
10 to 50	Cc1cnc(N2CC3(CCOCC3)C2)c(C(=O)Nc2ccc(C(=O)N3CCc4c(sc(C(=O)Nc5ncc(F)s5)c4F)-c4ccccc43)cc2)c1 [Example 224]
> 50	Cc1cnc(N2CC3(CCOCC3)C2)c(C(=O)Nc2ccc(C(=O)N3CCc4c(sc(C(=O)Nc5ncc(C(F)(F)F)s5)c4F)-c4ccccc43)cc2)c1 [Example 225]
< 10	Cc1cnc(N2CC3(CCOCC3)C2)c(C(=O)Nc2ccc(C(=O)N3CCc4c(sc(C(=O)Nc5ncccc5C)c4F)-c4ccccc43)cc2)c1 [Example 226]
10 to 50	Cc1ccnc(NC(=O)c2sc3c(c2F)CCN(C(=O)c2ccc(NC(=O)c4cc(C)cnc4N4CC5(CCOCC5)C4)cc2)c2ccccc2-3)c1 [Example 227]
10 to 50	Cc1ccc(NC(=O)c2sc3c(c2F)CCN(C(=O)c2ccc(NC(=O)c4cc(C)cnc4N4CC5(CCOCC5)C4)cc2)c2ccccc2-3)nc1 [Example 228]
< 10	O=C(Nc1ccc(C(=O)N2CCc3c(sc(C(=O)Nc4c(F)cccc4F)c3F)-c3ccccc32)cc1)c1cc2c(nc1N1CC3(CCOCC3)C1)CCC2 [Example 233]
< 10	Cc1cnc(N2CC3(CCOCC3)C2)c(C(=O)Nc2ccc(C(=O)N3CCc4cc(C(=O)Nc5c(F)cccc5F)oc4-c4ccc(F)cc43)cc2)c1 [Example 234]
< 10	Cc1cnc(N2CC3(CCOCC3)C2)c(C(=O)Nc2ccc(C(=O)N3CCc4cc(C(=O)Nc5c(Cl)cccc5Cl)oc4-c4ccc(F)cc43)cc2)c1 [Example 236]
< 10	Cc1cnc(N2CC3(CCOCC3)C2)c(C(=O)Nc2ccc(C(=O)N3CCc4cc(C(=O)Nc5c(F)cccc5Cl)oc4-c4ccc(F)cc43)cc2)c1 [Example 237]
< 10	O=C(Nc1c(F)cccc1Cl)c1cc2c(o1)-c1ccc(F)cc1N(C(=O)c1ccc(NC(=O)c3cc4c(nc3N3CC5(CCOCC5)C3)CCC4)cc1)CC2 [Example 240]
